This is an account of results in paper PMC6009861, “Development of terphenyl-2-methyloxazol-5(4H)-one derivatives as selective reversible MAGL inhibitors” (Journal of Enzyme Inhibition and Medicinal Chemistry, 2017).

Data set [1] concerns the target T1, MAGL (Homo sapiens, UniProt Q99685).
T1 construct: purchased Cayman Chemical
T1 sequence (Q99685 1-303): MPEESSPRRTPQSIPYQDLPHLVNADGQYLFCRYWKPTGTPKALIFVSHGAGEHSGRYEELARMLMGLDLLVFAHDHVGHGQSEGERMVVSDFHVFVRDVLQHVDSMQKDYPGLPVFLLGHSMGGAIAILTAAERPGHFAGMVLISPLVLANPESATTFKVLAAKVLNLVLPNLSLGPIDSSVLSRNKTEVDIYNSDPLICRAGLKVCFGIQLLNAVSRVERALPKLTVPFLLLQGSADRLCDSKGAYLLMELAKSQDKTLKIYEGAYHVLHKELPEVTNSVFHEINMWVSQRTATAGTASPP
As to the kind of experiment: MAGL-inhibition assay (4-NPA substrate, absorbance 405 nm). It counts as biochemical. To be noted: for MAGL/FAAH selectivity: ratio of FAAH IC50 to MAGL IC50 (fold). The procedure: Human recombinant MAGL, and 4-nitrophenylacetate substrate (4-NPA) were from Cayman Chemical. The IC50 values for compounds were generated in 96-well microtiter plates. The MAGL reaction was conducted at RT at a final volume of 200 µL in 10 mM Tris buffer, pH 7.2, containing 1 mM EDTA. A total of 150 µL of 4-NPA 133.3 µM (final concentration = 100 µM) was added to 10 µL of DMSO containing the appropriate amount of compound. The reaction was initiated by the addition of 40 µL of MAGL (11 ng/well) in such a way that the assay was linear over 30 min. […] After the reaction had proceeded for 30 min, absorbance values were then measured by using a VictorX3 PerkinElmer instrument at 405 nm. Two reactions were also run: one reaction containing no compounds and the second one containing neither inhibitor nor enzyme. IC50 values were derived from experimental data using the Sigmoidal dose–response fitting of GraphPad Prism software as reported earlier.

In data set [2] the target is T2, human FAAH (Homo sapiens, UniProt O00519).
T2 sequence (O00519 1-579): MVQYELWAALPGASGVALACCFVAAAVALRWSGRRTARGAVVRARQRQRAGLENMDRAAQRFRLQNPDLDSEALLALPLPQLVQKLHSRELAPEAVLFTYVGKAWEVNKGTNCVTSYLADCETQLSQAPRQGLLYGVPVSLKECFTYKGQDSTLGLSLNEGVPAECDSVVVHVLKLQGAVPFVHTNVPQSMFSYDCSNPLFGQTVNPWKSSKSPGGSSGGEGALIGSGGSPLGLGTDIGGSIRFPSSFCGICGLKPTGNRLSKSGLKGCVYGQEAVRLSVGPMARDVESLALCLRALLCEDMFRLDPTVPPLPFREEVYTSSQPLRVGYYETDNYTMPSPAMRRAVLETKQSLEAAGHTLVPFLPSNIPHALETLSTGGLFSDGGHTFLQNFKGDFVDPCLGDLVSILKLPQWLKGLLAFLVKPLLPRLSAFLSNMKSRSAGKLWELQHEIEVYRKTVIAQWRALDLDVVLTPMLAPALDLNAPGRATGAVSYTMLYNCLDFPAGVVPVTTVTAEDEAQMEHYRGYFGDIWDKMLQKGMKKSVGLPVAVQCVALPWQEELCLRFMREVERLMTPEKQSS
Nature of the data set: FAAH inhibition assay (AMC arachidonoyl amide, fluorescence). The format is biochemical. To be noted: AMC arachidonoyl amide 10 µM, 30 min, RT. The procedure:
The IC50 values for compounds were generated in 96-well microtiter plates. The FAAH reaction was conducted at RT at a final volume of 200 µL in 125 mM Tris buffer, pH 9.0, containing 1 mM EDTA. A total of 150 µL of AMC arachidonoyl amide 13.3 µM (final concentration = 10 µM) was added to 10 µL of DMSO containing the appropriate amount of compound. The reaction was initiated by the addition of 40 µL of FAAH (0.9 µg/well) in such a way that the assay was linear over 30 min. After the reaction had proceeded for 30 min, fluorescence values were then measured by using a VictorX3 PerkinElmer instrument at an excitation wavelength of 340 nm and an emission of 460 nm. Two reactions were also run: one reaction containing no compounds and the second one containing neither inhibitor nor enzyme. IC50 values were derived from experimental data using the Sigmoidal dose − response fitting of GraphPad Prism software as reported earlier. To remove possible false-positive results, for each compound concentration, a blank analysis was carried out, and the final fluorescence results were obtained detracting the fluorescence produced by the presence of all the components except FAAH in the same conditions.

Data set [3] deals with EAE mouse model of multiple sclerosis. Also noted: method as in PMID 25298214. To be noted: cited from earlier work.
[4] abbreviates: human recombinant MAGL, 4-NPA 100 µM, 30 min, RT.

In the case of `COc1nn(-c2ccc(NC(=O)OCc3ccccc3)c(C)c2)c(=O)o1` [CAY10499, reference compound], the values for the IC50 in data set [1] (setting [4]) and in data set [2] were 0.144 ± 0.004 µM and 0.0147 ± 0.0002 µM, respectively. In data set [1], the MAGL/FAAH selectivity is reported as 0.1.
The like results for `CC1=N/C(=C\c2ccc(-c3ccccc3)c(-c3ccccc3)c2)C(=O)O1` [Compound 5, (Z)-4-[(1,1′:2′,1′′-Terphenyl)-4′-ylmethylene]-2-methyloxazol-5(4H)-one] were, in that order, 0.837 ± 0.018 µM, 2.32 ± 0.051 µM and 3.
Turning to `CC1=N/C(=C\c2ccc(-c3ccccc3)cc2-c2ccccc2)C(=O)O1` [Compound 7, (Z)-4-[(1,1′:3′,1′′-Terphenyl)-4′-ylmethylene]-2-methyloxazol-5(4H)-one], the IC50 in data set [1] (setting [4]) was 0.546 ± 0.02 µM; in data set [2] it was 18.2 ± 0.904 µM. Moreover, in data set [1], the MAGL/FAAH selectivity was 33.
The corresponding values for `CC1=N/C(=C\c2cccc(-c3ccccc3)c2-c2ccccc2)C(=O)O1` [Compound 9, (Z)-4-[(1,1′:2′,1′′-Terphenyl)-3′-ylmethylene]-2-methyloxazol-5(4H)-one] are 2.56 ± 0.172 µM, 20.1 ± 1.44 µM and 8.
The like results for `CC1=N/C(=C\c2cc(-c3ccccc3)cc(-c3ccccc3)c2)C(=O)O1` [Compound 13, (Z)-4-[(1,1′:3′,1′′-Terphenyl)-5′-ylmethylene]-2-methyloxazol-5(4H)-one] were, in that order, 0.457 ± 0.01 µM, 14.8 ± 1.18 µM and 32.
On to `CC1=N/C(=C\c2cc(-c3ccccc3)ccc2-c2ccccc2)C(=O)O1` [Compound 15, (Z)-4-[(1,1′:4′,1′′-Terphenyl)-2′-ylmethylene]-2-methyloxazol-5(4H)-one], for which the IC50 in data set [1] (setting [4]) was 0.32 ± 0.01 µM; in data set [2] it was 10.9 ± 0.161 µM. The MAGL/FAAH selectivity in data set [1] amounted to 34.
The like results for `CC1=N/C(=C\c2cc(-c3ccc(F)cc3)ccc2-c2ccc(F)cc2)C(=O)O1` [Compound 20a, (Z)-4-{[4,4′′-Difluoro-(1,1′:4′,1′′-terphenyl)-2′-yl]methylene}-2-methyloxazol-5(4H)-one] were, in that order, 0.683 ± 0.05 µM, 28 ± 1.31 µM and 41.
In the case of `CC1=N/C(=C\c2cc(-c3ccc(OC(F)(F)F)cc3)ccc2-c2ccc(OC(F)(F)F)cc2)C(=O)O1` [Compound 20c, (Z)-4-{[4,4′′-Bis(trifluoromethoxy)-(1,1′:4′,1′′-terphenyl)-2′-yl]methylene}-2-methyloxazol-5(4H)-one], the IC50 in data set [1] (approximate values) is 4 to 6 µM; in data set [1] (setting [4]), 4.19 ± 0.299 µM; in data set [2], 17.7 ± 1.2 µM. Also, the MAGL/FAAH selectivity in data set [1] was 4.
The like results for `CC1=N/C(=C\c2cc(-c3ccc(C(F)(F)F)cc3)ccc2-c2ccc(C(F)(F)F)cc2)C(=O)O1` [Compound 20d, (Z)-4-{[4,4′′-Bis(trifluoromethyl)-(1,1′:4′,1′′-terphenyl)-2′-yl]methylene}-2-methyloxazol-5(4H)-one] were, in that order, 4 to 6 µM, 6.76 ± 1.13 µM, 29 ± 1.16 µM and 4.
Take `CC1=N/C(=C\c2cc(-c3cccc(F)c3)ccc2-c2cccc(F)c2)C(=O)O1` [Compound 20e, (Z)-4-{[3,3′′-Difluoro-(1,1′:4′,1′′-terphenyl)-2′-yl]methylene}-2-methyloxazol-5(4H)-one]: the 50% inhibitory concentration (IC50) is 0.628 ± 0.032 µM in data set [1] (setting [4]) and 11.7 ± 0.895 µM in data set [2]. Also, the MAGL/FAAH selectivity in data set [1] came to 19.
The corresponding values for `CC1=N/C(=C\c2cc(-c3ccc4c(c3)OCO4)ccc2-c2ccc3c(c2)OCO3)C(=O)O1` [Compound 20f, (Z)-4–[2,5-Bis(benzo[d][1,3]dioxol-5-yl)benzylidene]-2-methyloxazol-5(4H)-one] are 0.673 ± 0.023 µM, 23.7 ± 1.35 µM and 35.
Turning to `COc1ccc(-c2ccc(-c3ccc(OC)c(F)c3)c(/C=C3\N=C(C)OC3=O)c2)cc1F` [Compound 20g, (Z)-4-{[3,3′′-Difluoro-4,4′′-dimethoxy-(1,1′:4′,1′′-terphenyl)-2′-yl]methylene}-2-methyloxazol-5(4H)-one], the values for the IC50 in data set [1] (setting [4]) and in data set [2] were 0.335 ± 0.002 µM and 22.3 ± 1.24 µM, respectively. Moreover, the MAGL/FAAH selectivity in data set [1] was 67.
Take `CC1=N/C(=C\c2cc(-c3ccc(Cl)cc3)ccc2-c2ccc(Cl)cc2)C(=O)O1` [Compound 20h, (Z)-4-{[4,4′′-Dichloro-(1,1′:4′,1′′-terphenyl)-2′-yl]methylene}-2-methyloxazol-5(4H)-one]: the IC50 in data set [1] (setting [4]) turned out to be 0.476 ± 0.039 µM; in data set [2] it was 11.5 ± 0.998 µM. Moreover, in data set [1], the MAGL/FAAH selectivity is 24.
On to `O=C(Oc1ccc([N+](=O)[O-])cc1)N1CCC(C(O)(c2ccc3c(c2)OCO3)c2ccc3c(c2)OCO3)CC1` [JZL-184, reference compound], for which half-maximal inhibition in data set [2] (IC50) was put at 3.3 ± 0.205 µM.
As for `O=C(CCCCCc1ccc(-c2ccccc2)cc1)OCc1ccc2c(c1)OCO2` [c21], the “Catalepsy or other motor impairments” value in data set [3] (mouse) is on record as “not accompanied by catalepsy or other motor impairments”. Moreover, the “Effect on clinical progression in EAE mouse model” value in data set [3] (multiple sclerosis mouse model) was “ameliorated the clinical progression”.

For orientation: IC50 means the midpoint of a concentration-inhibition curve.
